{"source": "patent US7586020B2", "about": "“Methods for determining effects of maternal treatments on offspring” (priority 1998, dated 2009)", "origin": "cited, not measured here", "tested_on": "(YS×VY)FI female mice", "conditions": "between about 17 and 24 months of age"}
{"smiles": "Cl[C@H]1[C@H](Cl)[C@@H](Cl)[C@@H](Cl)[C@H](Cl)[C@H]1Cl", "note": "[lindane]", "values": [{"measurement": "mortality, lindane-treated versus untreated control mice", "value": "no differences in mortality"}]}
